According to ChEMBL document CHEMBL1201862, “PubChem BioAssay data set” (2004):
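Five compound concentrations were applied to cells in 96-well plates for 48 hours; endpoints were derived by simple linear interpolation of the resulting dose-response curve. Abbreviation: GI50, concentration required for 50% inhibition of growth.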 Calls of active or inactive are those of the source. Cut-off read from the data, not from the text of the source: active = GI50 up to about 1.1 µM and inactive = higher.

Tests used:
Test in all cases: NCI tumour cell line growth inhibition, 48 h
[1] = test system: A498
[2] = test system: Hs-578T
[3] = test system: NCI-H460
[4] = test system: NCI-H226
[5] = test system: MCF7
[6] = test system: NCI-H23
[7] = test system: OVCAR-3
[8] = test system: HCT-116
[9] = test system: SK-MEL-28
[10] = test system: DU-145
[11] = test system: SF-268
[12] = test system: SW-620
[13] = test system: U-251
[14] = test system: ACHN
[15] = test system: PC-3
[16] = test system: UO-31
[17] = test system: SNB-75
[18] = test system: SN12C
[19] = test system: BT-549
[20] = test system: Malme-3M

SMILES | GI50 [1] | GI50 [2] | GI50 [3] | GI50 [4] | GI50 [5] | GI50 [6] | GI50 [7] | GI50 [8] | GI50 [9] | GI50 [10] | GI50 [11] | GI50 [12] | GI50 [13] | GI50 [14] | GI50 [15] | GI50 [16] | GI50 [17] | GI50 [18] | GI50 [19] | GI50 [20]
O=C(C1=CCC2(CC1)OCCO2)N(Cc1ccccc1)c1ccccc1I | 22.5 µM (inactive) | 0.181 µM (active) | 18.9 µM (inactive) | 19.9 µM (inactive) | 26.4 µM (inactive) | 19.7 µM (inactive) | 21.3 µM (inactive) | 14.8 µM (inactive) | 21.2 µM (inactive) | 32.8 µM (inactive) | 13.4 µM (inactive) | 29.7 µM (inactive) | 19.9 µM (inactive) | 20.8 µM (inactive) | 26.3 µM (inactive) | 17.6 µM (inactive) | 14.1 µM (inactive) | 24 µM (inactive) |  | 
C[C@]12CC[C@@H]3c4ccc(O)cc4CC[C@H]3[C@@H]1C/C(=C\c1ccc([N+](=O)[O-])cc1)C2=O | > 100 µM (inactive) |  | 48 µM (inactive) | 71.6 µM (inactive) | 52.1 µM (inactive) | 78.9 µM (inactive) | 74 µM (inactive) | 37.7 µM (inactive) | > 100 µM (inactive) | 50 µM (inactive) | 52.6 µM (inactive) | > 100 µM (inactive) | 40.1 µM (inactive) | 61.4 µM (inactive) | 37.2 µM (inactive) | 77.1 µM (inactive) | 50.7 µM (inactive) | > 100 µM (inactive) | > 100 µM (inactive) | 67.6 µM (inactive)
CCC12CN(C(=O)OC)C3C(Br)C1CCC(=O)C32 (centres undefined) | > 100 µM (inactive) | > 100 µM (inactive) | > 100 µM (inactive) | > 100 µM (inactive) | > 100 µM (inactive) | > 100 µM (inactive) | > 100 µM (inactive) |  | > 100 µM (inactive) | > 100 µM (inactive) | > 100 µM (inactive) | > 100 µM (inactive) | > 100 µM (inactive) | > 100 µM (inactive) | > 100 µM (inactive) | > 100 µM (inactive) | > 100 µM (inactive) |  |  | > 100 µM (inactive)
Nc1nc(N)c2ncn(-c3ccc(Cl)cc3)c2n1 | 21.8 µM (inactive) |  |  | 39.1 µM (inactive) | 41.3 µM (inactive) | 61 µM (inactive) | 40.6 µM (inactive) | 37.9 µM (inactive) | > 100 µM (inactive) | 25 µM (inactive) |  |  | 49.1 µM (inactive) | 27.7 µM (inactive) | 35.7 µM (inactive) | 32.3 µM (inactive) | 10.1 µM (inactive) | 36.6 µM (inactive) |  | 28.4 µM (inactive)
COC(=O)[C@H](Cc1c[nH]c2ccccc12)NP(=O)(OCCC#N)OCC1OC(n2cc(C)c(=O)[nH]c2=O)CC1N=[N+]=[N-] (some centres undefined) |  |  | > 100 µM (inactive) | > 100 µM (inactive) | > 100 µM (inactive) | > 100 µM (inactive) | > 100 µM (inactive) | > 100 µM (inactive) |  | > 100 µM (inactive) | > 100 µM (inactive) | > 100 µM (inactive) | > 100 µM (inactive) | 50.8 µM (inactive) | > 100 µM (inactive) | > 100 µM (inactive) | > 100 µM (inactive) | > 100 µM (inactive) | > 100 µM (inactive) | > 100 µM (inactive)
CNC(=O)N1CN(c2ccccc2)C2(CCN(CCCC(=O)c3ccc(F)cc3)CC2)C1=O |  |  |  | 25.5 µM (inactive) | 3.62 µM (inactive) | 23.4 µM (inactive) | 18.4 µM (inactive) | 7.59 µM (inactive) | 17.2 µM (inactive) | 11.3 µM (inactive) | 39.1 µM (inactive) | 27.3 µM (inactive) | 21.5 µM (inactive) | 11.1 µM (inactive) | 31.2 µM (inactive) | 7.08 µM (inactive) | 29.3 µM (inactive) | 21.4 µM (inactive) |  | 20 µM (inactive)
Cc1ccc(C2=C(C#N)C(=O)N3CCN=C3S2)cc1 |  |  | > 100 µM (inactive) | > 100 µM (inactive) | > 100 µM (inactive) | > 100 µM (inactive) | > 100 µM (inactive) | > 100 µM (inactive) | > 100 µM (inactive) | > 100 µM (inactive) |  | > 100 µM (inactive) | > 100 µM (inactive) | 45.1 µM (inactive) | > 100 µM (inactive) | > 100 µM (inactive) | > 100 µM (inactive) | > 100 µM (inactive) | > 100 µM (inactive) | 43.5 µM (inactive)
COC(=O)C1Cc2c([nH]c3ccccc23)-c2[nH]c3ccccc3c2CC(NC(C)=O)C(=O)N2CCCC2C(=O)N1 (centres undefined) |  | > 100 µM (inactive) | > 100 µM (inactive) | 0.176 µM (active) | > 100 µM (inactive) | > 100 µM (inactive) | > 100 µM (inactive) | > 100 µM (inactive) | > 100 µM (inactive) | > 100 µM (inactive) | > 100 µM (inactive) | > 100 µM (inactive) | > 100 µM (inactive) | > 100 µM (inactive) | > 100 µM (inactive) | > 100 µM (inactive) | > 100 µM (inactive) | > 100 µM (inactive) |  | 
O=C(O)c1cc(O)c2c(c1)Cc1cccc(O)c1C2=O | 26.9 µM (inactive) |  | 23.3 µM (inactive) | 24.1 µM (inactive) | 30.1 µM (inactive) | 28.1 µM (inactive) | 17.9 µM (inactive) | 23.9 µM (inactive) | 34.1 µM (inactive) | 36.5 µM (inactive) | 25.4 µM (inactive) | 38.5 µM (inactive) | 17.6 µM (inactive) | 15.4 µM (inactive) | 29.2 µM (inactive) | 17.4 µM (inactive) | 14.1 µM (inactive) | 16.6 µM (inactive) | 30.5 µM (inactive) | 19.7 µM (inactive)
CC#CCCN(CC#N)Cc1ccccc1 | 20.4 µM (inactive) | > 100 µM (inactive) | > 100 µM (inactive) | > 100 µM (inactive) | 20.1 µM (inactive) | > 100 µM (inactive) |  | > 100 µM (inactive) | > 100 µM (inactive) | > 100 µM (inactive) | > 100 µM (inactive) |  | > 100 µM (inactive) | 21.3 µM (inactive) | > 100 µM (inactive) | > 100 µM (inactive) | > 100 µM (inactive) | > 100 µM (inactive) |  | > 100 µM (inactive)
O=C(c1ccccc1)c1ccc(COc2ccc(C(c3c(O)c4ccccc4oc3=O)c3c(O)c4ccccc4oc3=O)cc2)cc1 |  | 29.4 µM (inactive) | 19.9 µM (inactive) | 0.173 µM (active) | 27.8 µM (inactive) | 17.4 µM (inactive) | 18.9 µM (inactive) | 33.3 µM (inactive) | 17.9 µM (inactive) | 59.8 µM (inactive) | 31.9 µM (inactive) | 25.7 µM (inactive) | 89.3 µM (inactive) | 19.3 µM (inactive) | 18.3 µM (inactive) | 27.7 µM (inactive) | 18.5 µM (inactive) | 43.8 µM (inactive) |  | 
O=C(COc1ccc(Cl)cc1Cl)N/N=C/C=C/c1ccc([N+](=O)[O-])o1 | 11.5 µM (inactive) | 1.87 µM (inactive) | 8.39 µM (inactive) | 10.5 µM (inactive) | 4.14 µM (inactive) | 3.18 µM (inactive) | 4.59 µM (inactive) | 1.87 µM (inactive) | 4.08 µM (inactive) |  | 29.4 µM (inactive) | 5.37 µM (inactive) | 15.7 µM (inactive) | 4.63 µM (inactive) | 12.6 µM (inactive) | 5.05 µM (inactive) | 14.3 µM (inactive) | 8.47 µM (inactive) | 12.1 µM (inactive) | 2.8 µM (inactive)
O=C(O)c1ccccc1/C=N/N=C1NCCCCN1 | > 100 µM (inactive) | > 100 µM (inactive) | > 100 µM (inactive) | > 100 µM (inactive) | > 100 µM (inactive) | > 100 µM (inactive) | > 100 µM (inactive) | > 100 µM (inactive) | > 100 µM (inactive) |  | > 100 µM (inactive) | > 100 µM (inactive) | > 100 µM (inactive) | > 100 µM (inactive) | > 100 µM (inactive) | > 100 µM (inactive) | > 100 µM (inactive) |  | > 100 µM (inactive) | > 100 µM (inactive)
CCOC(=O)c1ccc(Nc2c3c(nc4ccccc24)CCCC3)cc1 | 15.3 µM (inactive) | 27.5 µM (inactive) | 43.2 µM (inactive) | > 100 µM (inactive) | 12 µM (inactive) | > 47.9 µM (inactive) | > 100 µM (inactive) | > 34.3 µM (inactive) | > 100 µM (inactive) | > 57.9 µM (inactive) | 76.2 µM (inactive) | 4.2 µM (inactive) | 22.9 µM (inactive) | > 91.4 µM (inactive) | > 47.5 µM (inactive) | > 34.3 µM (inactive) | 6.73 µM (inactive) | > 100 µM (inactive) |  | 
COC(=O)CCC(=O)N1CC1C (centres undefined) | > 100 µM (inactive) |  | > 100 µM (inactive) | > 100 µM (inactive) |  | > 100 µM (inactive) | > 100 µM (inactive) | > 100 µM (inactive) | > 100 µM (inactive) |  | > 100 µM (inactive) | > 100 µM (inactive) | > 100 µM (inactive) | > 100 µM (inactive) |  | > 100 µM (inactive) | > 100 µM (inactive) | > 100 µM (inactive) |  | > 100 µM (inactive)
COc1ccc2c(c1)CC[C@@H]1[C@@H]2CC[C@]2(C)C(=O)/C(=C/c3ccc(N(C)C)cc3)C[C@@H]12 | 30.3 µM (inactive) |  | 39.8 µM (inactive) |  |  | 33 µM (inactive) | 23 µM (inactive) | 44 µM (inactive) |  | > 100 µM (inactive) | 32.4 µM (inactive) | > 100 µM (inactive) | 46.1 µM (inactive) | 48.9 µM (inactive) | 47.2 µM (inactive) | 98.9 µM (inactive) | 24.2 µM (inactive) |  | 29.1 µM (inactive) | 83.2 µM (inactive)
